Data taken from US9708628B2, “Cationic lipid having improved intracellular kinetics” (NOF CORPORATION, priority 2011, dated 2017).

Key:
HT1080 cells = assay: Evaluation of endosome amount (Lysotracker Green); type: cell-based; details: 6 hr after transfection
Description: MENDs having a composition of B-2-4 (Example 4):DOPE:Chol=3:3:4, B-2 (Example 1):SOPE:Chol=5:3:2 were prepared by the method described in [Experimental Example 1] (2). For the preparation, PEG2000-DMG was used as PEG lipid, and MEND solutions corresponding to 0.55 mM of the lipid concentration were prepared.
HT1080 cells were plated on a glass bottom dish at 5×10^4 cells/2 mL/dish 24 hr before. MEND was diluted with DMEM (FBS 10%+) to achieve pDNA 1.6 μg/2 mL and transfected into the cells. The cells without transfection of MEND were used as a control. After 5.5 hr, Lysotracker Green (Life technologies) was added at 2 μL/dish and Hoechst 33342 (Dojindo) was further added at 2 μL/dish 30 min later. 6 hr after the transfection, the cells were washed twice with heparin (20 units/mL, 2 mL), Krebs buffer (1 mL) was added, and the cells were observed by a confocal laser scan microscope.
Endosome/lysosome and nucleus were shown in pseudo colors of green and blue, respectively. The relative endosome amount was calculated according to the following formula.

IL-12p70 = assay: Cytokine production by MEND administration, IL-12p70 (ELISA); type: in vivo, ICR mice; details: pCpGfree-Luc(0), 40 μg DNA
Description: (§1) MENDs used in [Experimental Example 12] were each administered to 5-week-old male ICR mice from the tail vein in an amount corresponding to 40 μg DNA. 1, 3, 6, 24 hr later, the blood was collected from the heart, and TNF-α, IFN-γ, IL-12p70 were measured using Quantikine ELISA kit (R&D Systems).

liver [1] = assay: Time course of gene expression activity in the liver (IVIS imaging, total luminescence in abdomen); type: in vivo, ICR mice; details: for luminescence / gene expression time course: 40 μg DNA, tail vein
From the text: As a DNA to be mounted on MEND composed of B-2 in this case, […]-Luc(0) described in WO 2011/132713 was used as pDNA completely excluding CpG sequence known to induce immune response and, as a general pDNA having a CpG sequence, a plasmid DNA (pcDNA3.1-Luc(+); CpG sequence total 425) containing a CpG sequence in the back bone of the plasmid DNA and having a CpG sequence even between the initiation codon and the stop codon of the luciferase sequence (marker gene) was used. In gene transfer using cationic MEND and in vivo […]-Luc(0) alone was used. 6, 24, 72 hr later, luciferin (in vivo grade, Promega) corresponding to 3 mg was intraperitoneally administered to the mice, and imaging was performed using IVIS LuminaII (Caliper Life Sciences). As for MEND composed of B-2, imaging was performed about twice a week even after 72 hr. The total luminescence amount in the mouse abdomen was calculated as photon/sec from the obtained images, and used as an index of gene expression activity in the liver.

IFN-γ = assay: Cytokine production by MEND administration, IFN-γ (ELISA); type: in vivo, ICR mice; details: pCpGfree-Luc(0), 40 μg DNA
Description: as §1

liver [2] = assay: Intrahepatic behavior of MEND (intravital confocal microscopy); type: in vivo, ICR mice; details: Rhodamine-DOPE labeled MEND, 40 μg DNA/mouse, about 10 min filming
Description: Rhodamine-DOPE was added to R8/GALA-MEND in an amount of 0.1% of the total lipid concentration, and to B-2 MEND in an amount of 1% of the total lipid concentration. 50 mg/mL Sodium pentobarbital (Nacalai Tesque) was diluted 5-fold with saline and intraperitoneally administered to ICR mice (5-week-old male) for anesthesia. Griffonia simplicifolia Lectin I-B4 Isolectin, FITC Conjugate (VECTOR Laboratories, about 80 μL) was administered to the mice under anesthesia from the tail vein to stain the vascular endothelial cells. […] A winged intravenous indwelling needle connected with an extension tube filled with the MEND solution was indwelled in the tail vein of the mouse. To prevent dislocation of the observation site due to the heart beat of the mouse, a device for fixing the liver by adsorption (Shimizu K et al., J Biosci Bioeng. 112(5): 508-10) was used, and the mouse was observed using a confocal microscope (Nikon A1) with a 60-fold water immersion lens.

TNF-α = assay: Cytokine production by MEND administration, TNF-α (ELISA); type: in vivo, ICR mice; details: pCpGfree-Luc(0), 40 μg DNA
Description: as §1

liver, lung and spleen = assay: Gene expression activity in liver, lung and spleen after tail vein administration of MEND; type: in vivo, ICR mice; details: 40 μg DNA
Description: A solution of pDNA encoding luciferase gene and protamine (maker) solution were diluted with 10 mM HEPES buffer to 0.3 mg/mL and 0.24 mg/mL, respectively. […] A solution (750 μL) of the electrostatic complex composed of gene and protamine was mixed with the lipid solution (750 μL), and the mixture was quickly stirred, diluted with 10 mM HEPES solution (pH 5.3) to 15 mL, and subjected to ultrafiltration using Amicon® Ultra-15 100K device at 3,000 rpm, 15 min, 25° C. The solution after ultrafiltration was diluted with 100 mM HEPES buffer (pH 7.4), and subjected to the ultrafiltration again. The solution was diluted with 10 mM HEPES buffer to 750 μL. […] The mice were euthanized by a cervical spine […] method 6, 24, 48, 72 hr later, and the liver, lung and spleen were isolated and frozen with liquid nitrogen. They were thawed in a Lysis buffer to prepare homogenates. They were centrifuged at 13,000 rpm, 10 min, 4° C., and the supernatant was collected and used as a measurement sample. The sample solution (20 μL) was mixed with a luciferase substrate (50 μL), and the luciferase activity was measured using Luminescenser-PSN (AB2200 ATTO). In addition, the concentration of the protein in the sample was quantified using a BCA protein assay kit, and the gene expression activity was measured as RLU/mg protein.

CC1=C(/C=C/C(C)=C/C=C/C(C)=C/C(=O)OCCCN(C)CCSSCCN(C)CCCOC(=O)/C=C(C)/C=C/C=C(C)/C=C/C2=C(C)CCCC2(C)C)C(C)(C)CCC1 [Example B-2-4]
relative endosome amount (HT1080 cells): significant decrease in endosome than the untreated group and the B-2 treatment group

CCCCCCCCCCCCCC(=O)OCCCN(C)CCSSCCN(C)CCCOC(=O)CCCCCCCCCCCCC [Example B-2]
IL-12p70 blood concentration (IL-12p70): maintained the normal value at any time point
time at which luminescence completely disappeared (liver [1]; pCpGfree-Luc(0)): 18 days
luminescence / gene expression time course (liver [1]; pCpGfree-Luc(0)): luminescence amount increased from 6 hr to 24 hr later, after which the luminescence amount was retained for the subsequent one week
luminescence / gene expression time course (liver [1]; pcDNA3.1-Luc(+)): weak luminescence 6 hr later, after which the gene expression decreased
IFN-γ blood concentration (IFN-γ): maintained the normal value at any time point
behavior in liver blood vessels (liver [2]): coagulation was not formed and the MEND uniformly flows through the blood vessels
TNF-α blood concentration (TNF-α): maintained the normal value at any time point
gene expression activity in the lung and spleen (organ selectivity) (liver, lung and spleen): background-level
time of peak/maximum gene expression activity (liver, lung and spleen; liver): 48 h
